In US20240102100A1, “RIBOSOMAL RNAS 2'O-M[…] A NOVEL SOURCE OF […] FOR DIAGNOSIS, PROGNOSIS AND THERAPY OF CANCERS” (CENTRE LEON BERARD, priority 2020, published 2024):

Experiments:
hMEC epithelial cells = experiment: Cell viability monitored in real time (Incucyte), cell confluence as read-out, with increasing concentration of anisomycin; assay type: cell-based, human; conditions: real-time monitoring
From the text: (§1) Cell lines and cell viability. The epithelial and mesenchymal cellular models were kindly provided by Alain Puisieux's team (17). Briefly, the human epithelial mammary cell (hMECs) were used to derive EMT-related cellular models. The hMEC cell line corresponds to epithelial cells (Lonza) that were immortalized by lentiviral transduction allowing hTERT overexpression. The hMEC cell line was then transduced with lentiviral vector to induce stable over-expression of the murine EMT-TF ZEB1 and to promote EMT and thus generates the hMEC-ZEB1 mesenchymal cell line. The hMEC cellular models were maintained in DM EM-F12 (Gibo) supplemented with 0.5 μg/ml hydrocortisone, 10 ng/ml EGF, […] insulin, 10% fetal calf serum, 100 μg/ml streptomycin and 100 units/ml of penicillin. Selective pressure was maintained with puromycin for hMEC-ZEB1. Cell viability was monitored in real-time using Incucyte Live-Cell analysis system (Statorius). Cells were plated in 96-well plates without selective pressure for 24 hrs before addition of the anisomycin antibiotic (range concentration 2-200 nM). DMSO was used as negative control.
(§2) At day 6, difference in cell viability was determined using cell confluence as a read-out.

[1] = system: hMEC-ZEB1 mesenchymal cells; experiment: as above; assay type: cell-based, human
From the text: as §1, §2

Structure (SMILES): COc1ccc(C[C@H]2NC[C@H](O)[C@H]2OC(C)=O)cc1 [anisomycin]
- change in cell morphology (hMEC epithelial cells): no change in cell morphology was observed
- sensitivity to anisomycin treatment (cell viability, cell confluence as read-out) ([1]; hMEC-ZEB1 mesenchymal cells compared with hMEC epithelial cells, anisomycin 2-200 nM, day 6): more sensitive
- change in cell morphology ([1]; mesenchymal cells, increasing concentration of anisomycin, real-time monitoring): no change in cell morphology was observed
